Data on 3 molecules can be found in patent US7517877B2, “5-substituted-alkylaminopyrazole derivatives as pesticides” (Merial Limited, priority 2002, dated 2009).

Some results are limits rather than exact numbers.

A word on the melting point: it is the temperature, or range, at which the solid turns liquid. In general, mortality refers to the percentage killed. Lower therefore signals a weak lethal effect.

Data set [1] has as its system Nephotettix cinciceps (Rice Leafhopper). The experiment in a line: Method C: Nephotettix cinciceps (Rice Leafhopper) screen, dipped rice plants. The format is in vivo, Nephotettix cincticeps. Particulars: 144 h, test concentration of 100 ppm, L3 larvae, after 6 days storage. As to the method: Method C: Nephotettix Cinciceps (Rice Leafhopper) Screen
The leaves of 12 rice plants having a stem length of 8 cm were dipped for 5 seconds into an aqueous solution of the formulated test compound. After the solution had run off, the rice plants treated in this manner were placed in a Petri dish and populated with about 20 larvae (L3 stage) of Nephotettix cincticeps. The Petri dish was closed and then stored in a climate chamber (16 hours of light/day, 25° C., 40-60% relative humidity). After 6 days storage, the percentage mortality of leafhopper larvae was determined.

Molecule `CCSCCCNc1c(S(=O)(=O)C(F)(F)F)c(C#N)nn1-c1c(Cl)cc(C(F)(F)F)cc1Cl` [Compound 1-14, 1-(2,6-dichloro-4-trifluoromethylphenyl)-3-cyano-5-(3-ethylthiopropylamino)-4-trifluoromethylsulfonylpyrazole] returned a melting point of 80 °C.
In data set [1], `[O-][S+](C1CCSC1)C1CCSC1` (stereo not drawn) [Compound 1-37, 3-tetrahydrothienyl sulfoxide] displayed a mortality at 100 ppm of at least 98%.
As to `CCSCCCN(C)c1c(S(=O)(=O)C(F)(F)F)c(C#N)nn1-c1c(Cl)cc(C(F)(F)F)cc1Cl` [Compound 2-14, 1-(2,6-dichloro-4-trifluoromethylphenyl)-3-cyano-5-[N-(3-ethylthiopropyl)-N-methylamino]-4-trifluoromethylsulfonylpyrazole], the melting point came to 89 °C.
